Test results from PubChem BioAssay (NCI).
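Five compound concentrations were applied to cells in 96-well plates for 48 hours; endpoints were derived by simple linear interpolation of the resulting dose-response curve. Definition used: TGI = concentration required for complete inhibition of growth.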

Tests used:
Test in all cases: growth of human tumour cells (NCI), 48 h
[1] = tested on: DMS 273 small cell lung
[2] = tested on: SK-MEL-28 melanoma
[3] = tested on: U251 CNS
[4] = tested on: SK-OV-3 ovarian
[5] = tested on: SNB-78 CNS
[6] = tested on: HOP-62 NSCLC
[7] = tested on: LXFL 529 NSCLC
[8] = tested on: KM20L2 colon
[9] = tested on: MOLT-4 leukemia
[10] = tested on: HCT-116 colon
[11] = tested on: SF-539 CNS
[12] = tested on: XF 498 CNS
[13] = tested on: DLD-1 colon
[14] = tested on: SNB-75 CNS
[15] = tested on: HOP-18 NSCLC
[16] = tested on: MCF7 breast
[17] = tested on: T-47D breast
[18] = tested on: HS 578T breast

Compound | TGI [1] [µM] | TGI [2] [µM] | TGI [3] [µM] | TGI [4] [µM] | TGI [5] [µM] | TGI [6] [µM] | TGI [7] [µM] | TGI [8] [µM] | TGI [9] [µM] | TGI [10] [µM] | TGI [11] [µM] | TGI [12] [µM] | TGI [13] [µM] | TGI [14] [µM] | TGI [15] [µM] | TGI [16] [µM] | TGI [17] [µM] | TGI [18] [µM]
CCOC(=O)/C(=C/c1ccccc1)N(CC)CC | > 100 | > 100 | > 100 | > 100 | > 100 | > 100 | > 100 | > 100 | > 100 | > 100 | > 100 | > 100 | – | – | – | – | – | –
CC1(C)OC2C(O1)[C@H]1OC(C(Cl)(Cl)Cl)=N[C@H]1C(I)[C@H]2N1C(=O)c2ccccc2C1=O (stereo not given in full) | > 100 | > 100 | > 100 | – | > 100 | > 100 | > 100 | > 100 | 58.3 | > 100 | > 100 | – | > 100 | > 100 | > 100 | – | – | –
O=C(c1nc2ccc(Cl)cc2[nH]c1=O)C(O)c1ccco1 (stereo not given) | > 100 | > 100 | – | > 100 | – | – | > 100 | 85.1 | > 100 | > 100 | > 100 | – | > 100 | > 100 | > 100 | – | – | –
COC(=O)[C@H]1C2CC[C@@H]3C45C[C@@H](c6ccoc6)O[C@@H]4O[C@@H](O2)C31CCC5C (stereo not given in full) | > 100 | – | > 100 | > 100 | > 100 | > 100 | > 100 | > 100 | > 100 | > 100 | > 100 | > 100 | > 100 | – | > 100 | – | – | –
CCOc1cc2cnc3c4cc(OC)c(OC)cc4ccc3c2cc1OC | – | > 100 | > 100 | > 100 | > 100 | > 100 | > 100 | > 100 | > 100 | > 100 | > 100 | – | > 100 | > 100 | > 100 | – | – | –
CC(C)C1COC(C(C)(C)C2=N[C@@H](C(C)C)CO2)=N1 (stereo not given in full) | > 100 | > 100 | > 100 | > 100 | – | > 100 | > 100 | > 100 | > 100 | > 100 | > 100 | > 100 | > 100 | > 100 | > 100 | – | – | –
NC(=S)N/N=C(/CCN1CCCC1)CC(C1=C(O)C2=CCCCC2OC1=O)c1ccccc1 (stereo not given) | – | – | > 100 | > 100 | > 100 | > 100 | > 100 | > 100 | – | > 100 | > 100 | > 100 | > 100 | > 100 | > 100 | – | – | –
CCOC(=O)n1ccc2c(C(=O)OC)c(C(=O)OC)cc(/C(=C/C(=O)OC)C(=O)OC)c21 | – | > 100 | > 100 | > 100 | – | > 100 | – | – | > 100 | > 100 | > 100 | – | – | > 100 | – | > 100 | > 100 | > 100
N#CC(C#N)=C(N)/C(C#N)=C/c1ccc(O)c(O)c1 | > 100 | > 100 | > 100 | > 100 | > 100 | > 100 | > 100 | > 100 | > 100 | > 100 | > 100 | > 100 | > 100 | > 100 | – | > 100 | > 100 | > 100
NC(=S)NN=C1Cc2ccccc2C1 | – | > 100 | > 100 | > 100 | – | > 100 | – | – | > 100 | > 100 | > 100 | – | – | > 100 | – | > 100 | > 100 | > 100
CC(O)/C=C/C1OC(=O)CC1Nc1ccc(C=O)cc1 (stereo not given) | – | > 100 | > 100 | > 100 | – | 77.4 | – | – | 77.5 | > 100 | > 100 | – | – | > 100 | – | > 100 | > 100 | > 100
COc1ccc(/C=N/NC(=O)CSc2nc(-c3ccccc3)c(-c3ccccc3)[nH]2)cc1OC | 40.7 | 89.8 | 57.8 | 63.3 | – | 72.5 | 55.1 | 41.6 | 37.6 | 87.2 | 45.6 | – | > 100 | 77 | – | – | – | –
COc1ccc([C@H]2[C@@H]3CCc4ccccc4C3=NN2C(N)=S)cc1OC | – | > 100 | > 100 | > 100 | > 100 | > 100 | > 100 | > 100 | > 100 | > 100 | > 100 | > 100 | > 100 | – | > 100 | – | – | –
CNc1ccc(Cl)cc1C(=O)N1CCC[C@H]1CO | – | > 100 | > 100 | > 100 | – | > 100 | – | – | > 100 | > 100 | > 100 | – | – | > 100 | – | > 100 | > 100 | > 100
COc1ccc(-n2nnc3c(C#N)c(C)c(-c4ccccc4)n3c2=O)cc1 | – | > 100 | > 41.5 | > 22.4 | – | > 100 | – | – | > 58.1 | 2.65 | > 20 | – | – | > 29.2 | – | > 100 | > 100 | > 100
CC(=O)NC(CCCCN(Cc1ccccc1)C(=O)N(C)N=O)C(=O)NCc1ccccc1 (stereo not given) | > 100 | > 100 | > 100 | > 100 | > 100 | > 100 | > 100 | > 100 | > 100 | > 100 | > 100 | > 100 | > 100 | 86.9 | – | – | – | –
CCCCCCCCCCCCCCCCCCOC(COP(=O)(O)OCC1OC(n2cc(F)c(=O)[nH]c2=O)CC1O)COP(=O)(O)OCC1OC(n2ccc(N)nc2=O)C(O)C1O (stereo not given) | – | > 100 | 50.7 | > 100 | – | > 100 | – | – | > 79.8 | > 100 | 31.1 | – | – | > 100 | – | > 100 | > 100 | > 100
